# How the values were obtained:
# Test in all cases: relative viability (nuclei count vs DMSO), 5 days (fraction); higher = more cells survive
# [1] = compound: COC1=CC=C(C=C1)CN2C=CC3=C2C=C(C=C3)C(=O)NO + CC(=O)Nc1cccc(-n2c(=O)n(C3CC3)c(=O)c3c(Nc4ccc(I)cc4F)n(C)c(=O)c(C)c32)c1 [Trametinib] (partner 0.02 µM)
# Outline: (§1)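 Lung cancer cell lines were seeded in 1536-well plates and dosed by pin tool the next day, with either a single drug or a fixed anchor-drug dose combined with five library-drug doses (not always all listed) spaced in √10 steps. Five days later, one step fixed the cells and stained their nuclei (final 0.05% Triton X-100, 1% formaldehyde, 1 ug/ml Hoechst), and nuclei were counted on 4× images. Relative viability is the nuclei count in treated wells divided by the count in vehicle wells, and each value is the median of duplicate plates.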
# [2] = compound: COC1=CC=C(C=C1)CN2C=CC3=C2C=C(C=C3)C(=O)NO + CS(=O)(=O)N1CCN(Cc2cc3nc(-c4cccc5[nH]ncc45)nc(N4CCOCC4)c3s2)CC1 [Pictilisib] (partner 1 µM)
# Outline: as §1
# [3] = compound: COC1=CC=C(C=C1)CN2C=CC3=C2C=C(C=C3)C(=O)NO + NC(=O)Nc1cc(-c2cccc(F)c2)sc1C(=O)N[C@H]1CCCNC1 [AZD7762] (partner 0.2 µM)
# Outline: as §1
# [4] = compound: C[C@]1(c2nc3c(C(N)=O)cccc3[nH]2)CCCN1 [Veliparib] + N=C(N)NC(=N)NCCc1ccccc1 [Phenformin] (partner 250 µM)
# Outline: as §1
Cell Line,relative viability ([1]; first compound 0.253 µM),relative viability ([1]; first compound 0.8 µM),relative viability ([1]; first compound 2.53 µM),relative viability ([1]; first compound 8 µM),relative viability ([2]; first compound 0.253 µM),relative viability ([2]; first compound 0.8 µM),relative viability ([2]; first compound 2.53 µM),relative viability ([2]; first compound 8 µM),relative viability ([3]; first compound 0.253 µM),relative viability ([3]; first compound 0.8 µM),relative viability ([3]; first compound 2.53 µM),relative viability ([3]; first compound 8 µM),relative viability ([4]; first compound 0.02 µM),relative viability ([4]; first compound 0.06325 µM),relative viability ([4]; first compound 0.2 µM),relative viability ([4]; first compound 0.6325 µM),relative viability ([4]; first compound 2 µM),relative viability ([1]; first compound 0.08 µM),relative viability ([2]; first compound 0.08 µM),relative viability ([3]; first compound 0.08 µM)
NCI-H1734,0.739,0.725,0.716,0.732,0.487,0.437,0.384,0.416,0.612,0.559,0.567,0.481,0.358,0.379,0.383,0.33,0.455,,,
NCI-H2087,0.204,0.232,0.181,0.154,0.936,0.776,0.976,0.674,1.24,1.5,1.17,1.25,0.334,0.467,0.428,0.435,0.486,0.163,0.497,1.31
LCLC-103H,0.65,0.715,0.694,0.679,0.621,0.586,0.648,0.532,0.851,0.809,0.851,0.679,0.328,0.353,0.341,0.325,0.327,0.653,0.526,0.764
NCI-H1299,,,,,1.03,0.77,0.658,0.593,,,,,,,,,,,0.834,
RERF-LC-KJ,1.06,0.827,0.892,0.809,0.571,0.511,0.608,0.472,0.773,0.918,0.948,0.967,0.408,0.442,0.4,0.396,0.47,0.865,0.468,0.888
PC-3 [JPC-3],,0.75,0.702,0.683,0.713,0.747,0.805,0.718,,0.965,0.869,0.652,0.471,0.478,0.498,0.469,0.495,0.641,0.781,0.799
NCI-H520,0.723,0.74,0.555,0.723,0.266,0.314,0.276,0.271,,,,,0.709,0.558,0.761,0.538,0.578,0.426,0.265,
NCI-H2228,0.664,0.831,0.598,0.433,0.326,0.536,0.46,0.251,,,,,0.209,0.301,0.276,0.284,0.236,0.386,0.375,
EBC-1,,,,,0.514,0.401,0.424,0.338,,,,,,,,,,,0.351,
NCI-H661,0.634,0.611,0.533,0.457,0.358,0.35,0.375,0.318,,,,,0.299,0.289,0.25,0.274,0.264,,,
NCI-H2009,0.264,0.261,0.248,0.194,0.836,0.91,0.788,0.604,,,,,0.455,0.452,0.483,0.457,0.473,0.288,0.601,
ABC-1,,,,,0.761,0.78,0.724,0.662,0.692,0.871,0.796,0.756,,0.227,0.265,0.233,0.288,,,
NCI-H2342,0.901,0.759,0.971,0.861,,,,,0.44,0.468,0.379,0.389,0.583,0.589,0.506,0.579,0.587,0.815,,0.475
NCI-H1703,,,,,0.259,0.221,0.256,0.147,0.167,0.146,0.123,0.121,,,,,,,,0.176
NCI-H1650,0.595,0.645,0.624,0.539,0.595,0.567,0.541,0.32,,,,,,0.473,0.519,0.404,0.34,0.543,0.173,
NCI-H522,0.812,0.678,0.767,0.64,,,,,0.792,1.06,0.951,0.612,0.683,0.664,0.667,0.583,0.802,,,
NCI-H1563,,,,,0.656,0.645,0.706,0.618,,,,,0.594,0.638,0.686,0.643,0.667,,0.547,
COR-L 105,0.469,0.443,0.471,0.385,0.348,0.462,0.363,0.306,,,,,0.386,0.464,0.504,0.492,0.451,0.348,,
NCI-H1648,0.42,0.461,0.583,0.438,,,,,0.584,0.723,0.447,0.525,,,,,,0.413,,0.523
SW 900,0.774,0.872,0.674,0.766,,,,,0.596,0.579,0.597,0.403,,,0.679,0.504,0.508,0.722,,0.646
IA-LM,,,,,0.388,0.373,0.371,0.23,,,,,,,,,,,0.296,
COR-L23,0.617,0.627,0.615,0.522,0.788,0.714,0.727,0.711,,,,,0.409,0.373,0.4,0.407,0.425,0.5,0.496,
A549,,,,,0.585,0.504,0.502,0.472,,,,,,0.209,0.166,0.143,0.185,,0.446,
UMC-11,0.708,0.712,0.735,0.666,0.82,0.864,0.756,0.748,,,,,0.334,0.316,0.312,0.284,0.314,0.225,0.28,

# From the supplement of paper PMC10307832
